From the NIST ThermoML archive (doi:10.1016/j.jct.2005.02.004)
Numbers after ± are expanded uncertainties.

Experiment: mn = molality of the nth substance listed, in mol/kg
Settings: Liquid, Vibrating tube method

[Br-].[Br-].[Zn+2] [zinc bromide] + CO
Settings | mass density [kg/m3]
348.24 K, 320 kPa, m1 = 0.05772 | 749.2 ± 0.46
348.24 K, 338 kPa, m1 = 1.951 | 1012.66 ± 0.43
348.24 K, 4981 kPa, m1 = 0.05772 | 755.32 ± 0.47
348.24 K, 4997 kPa, m1 = 1.951 | 1018.61 ± 0.43
348.24 K, 9997 kPa, m1 = 0.05772 | 761.44 ± 0.48
348.24 K, 10010 kPa, m1 = 1.951 | 1024.67 ± 0.43
348.24 K, 14982 kPa, m1 = 0.05772 | 767.11 ± 0.5
348.24 K, 14997 kPa, m1 = 1.951 | 1030.41 ± 0.43
348.24 K, 19995 kPa, m1 = 1.951 | 1035.89 ± 0.43
348.24 K, 20002 kPa, m1 = 0.05772 | 772.47 ± 0.52
348.24 K, 25006 kPa, m1 = 1.951 | 1041.15 ± 0.44
348.24 K, 25019 kPa, m1 = 0.05772 | 777.52 ± 0.53
348.24 K, 29980 kPa, m1 = 1.951 | 1046.17 ± 0.44
348.24 K, 29988 kPa, m1 = 0.05772 | 782.26 ± 0.55
348.24 K, 34988 kPa, m1 = 0.05772 | 786.8 ± 0.57
348.24 K, 34988 kPa, m1 = 1.951 | 1051.04 ± 0.44
348.24 K, 39992 kPa, m1 = 1.951 | 1055.74 ± 0.45
348.24 K, 39996 kPa, m1 = 0.05772 | 791.14 ± 0.59
373.24 K, 509 kPa, m1 = 0.3785 | 775.13 ± 0.45
373.24 K, 510 kPa, m1 = 0.7158 | 822.07 ± 0.44
373.24 K, 4989 kPa, m1 = 0.3785 | 782.12 ± 0.46
373.24 K, 5012 kPa, m1 = 0.7158 | 828.98 ± 0.45
373.24 K, 9999 kPa, m1 = 0.7158 | 836.05 ± 0.45
373.24 K, 10005 kPa, m1 = 0.3785 | 789.3 ± 0.47
373.24 K, 14990 kPa, m1 = 0.7158 | 842.63 ± 0.46
373.24 K, 14993 kPa, m1 = 0.3785 | 795.89 ± 0.48
373.24 K, 19988 kPa, m1 = 0.7158 | 848.79 ± 0.47
373.24 K, 20013 kPa, m1 = 0.3785 | 802.08 ± 0.5
373.24 K, 24986 kPa, m1 = 0.3785 | 807.84 ± 0.51
373.24 K, 25005 kPa, m1 = 0.7158 | 854.61 ± 0.48
373.24 K, 29988 kPa, m1 = 0.3785 | 813.28 ± 0.52
373.24 K, 29996 kPa, m1 = 0.7158 | 860.06 ± 0.48
373.24 K, 35005 kPa, m1 = 0.3785 | 818.47 ± 0.54
373.24 K, 35010 kPa, m1 = 0.7158 | 865.28 ± 0.49
373.24 K, 39999 kPa, m1 = 0.3785 | 823.36 ± 0.55
373.24 K, 40008 kPa, m1 = 0.7158 | 870.23 ± 0.5
373.25 K, 530 kPa, m1 = 0.05772 | 722.55 ± 0.46
373.25 K, 5013 kPa, m1 = 0.05772 | 729.6 ± 0.47
373.25 K, 10010 kPa, m1 = 0.05772 | 736.76 ± 0.49
373.25 K, 14996 kPa, m1 = 0.05772 | 743.34 ± 0.51
373.25 K, 20007 kPa, m1 = 0.05772 | 749.46 ± 0.53
373.25 K, 25002 kPa, m1 = 0.05772 | 755.2 ± 0.55
373.25 K, 29988 kPa, m1 = 0.05772 | 760.57 ± 0.57
373.25 K, 35011 kPa, m1 = 0.05772 | 765.68 ± 0.59
373.25 K, 40009 kPa, m1 = 0.05772 | 770.5 ± 0.62
373.26 K, 510 kPa, m1 = 1.951 | 982.6 ± 0.43
373.26 K, 4981 kPa, m1 = 1.951 | 989.17 ± 0.43
373.26 K, 9999 kPa, m1 = 1.951 | 996.08 ± 0.43
373.26 K, 14998 kPa, m1 = 1.951 | 1002.57 ± 0.43
373.26 K, 19990 kPa, m1 = 1.951 | 1008.69 ± 0.43
373.26 K, 25011 kPa, m1 = 1.951 | 1014.53 ± 0.43
373.26 K, 29987 kPa, m1 = 1.951 | 1020.09 ± 0.43
373.26 K, 34996 kPa, m1 = 1.951 | 1025.43 ± 0.43
373.26 K, 39999 kPa, m1 = 1.951 | 1030.56 ± 0.44
398.25 K, 874 kPa, m1 = 0.7158 | 791.54 ± 0.44
398.25 K, 875 kPa, m1 = 0.3785 | 744.91 ± 0.46
398.25 K, 4997 kPa, m1 = 0.7158 | 799.23 ± 0.45
398.25 K, 5007 kPa, m1 = 0.3785 | 752.83 ± 0.46
398.25 K, 9995 kPa, m1 = 0.7158 | 807.74 ± 0.46
398.25 K, 9997 kPa, m1 = 0.3785 | 761.43 ± 0.48
398.25 K, 14982 kPa, m1 = 0.7158 | 815.46 ± 0.47
398.25 K, 15016 kPa, m1 = 0.3785 | 769.33 ± 0.49
398.25 K, 19995 kPa, m1 = 0.7158 | 822.66 ± 0.48
398.25 K, 19996 kPa, m1 = 0.3785 | 776.5 ± 0.51
398.25 K, 25004 kPa, m1 = 0.7158 | 829.32 ± 0.49
398.25 K, 25013 kPa, m1 = 0.3785 | 783.19 ± 0.53
398.25 K, 29995 kPa, m1 = 0.3785 | 789.37 ± 0.54
398.25 K, 29999 kPa, m1 = 0.7158 | 835.55 ± 0.5
398.25 K, 34983 kPa, m1 = 0.7158 | 841.37 ± 0.51
398.25 K, 34995 kPa, m1 = 0.3785 | 795.22 ± 0.56
398.25 K, 39988 kPa, m1 = 0.7158 | 846.94 ± 0.52
398.25 K, 40001 kPa, m1 = 0.3785 | 800.74 ± 0.58
398.27 K, 890 kPa, m1 = 1.951 | 951.2 ± 0.43
398.27 K, 899 kPa, m1 = 0.05772 | 692.91 ± 0.46
398.27 K, 4987 kPa, m1 = 1.951 | 958.29 ± 0.43
398.27 K, 5013 kPa, m1 = 0.05772 | 700.92 ± 0.48
398.27 K, 9996 kPa, m1 = 1.951 | 966.33 ± 0.43
398.27 K, 10001 kPa, m1 = 0.05772 | 709.63 ± 0.5
398.27 K, 14992 kPa, m1 = 0.05772 | 717.48 ± 0.52
398.27 K, 14992 kPa, m1 = 1.951 | 973.78 ± 0.43
398.27 K, 19995 kPa, m1 = 0.05772 | 724.66 ± 0.54
398.27 K, 20001 kPa, m1 = 1.951 | 980.78 ± 0.43
398.27 K, 24985 kPa, m1 = 0.05772 | 731.27 ± 0.57
398.27 K, 25015 kPa, m1 = 1.951 | 987.36 ± 0.43
398.27 K, 29996 kPa, m1 = 1.951 | 993.57 ± 0.43
398.27 K, 30002 kPa, m1 = 0.05772 | 737.46 ± 0.59
398.27 K, 34980 kPa, m1 = 1.951 | 999.48 ± 0.43
398.27 K, 34994 kPa, m1 = 0.05772 | 743.23 ± 0.62
398.27 K, 39999 kPa, m1 = 0.05772 | 748.68 ± 0.64
398.27 K, 40007 kPa, m1 = 1.951 | 1005.18 ± 0.43
